Results published in US20230056593A1, “ARGININE ASPARTATE-CONTAINING COMPOSITION FOR SUPPRESSING OLD PERSON SMELL” (HUMEDIX CO., LTD., priority 2020, published 2023).

Tests used:
MMP-1 = MMP-1 expression level in human skin fibroblasts (PCR); type: cell-based
Description: Human skin fibroblasts were cultured at a concentration of 1×10^4/well. The cells were treated with arginine aspartate for each concentration, and the MMP-1 expression level was measured using a PCR device to evaluate the ability of arginine aspartate to inhibit MMP-1. A group in which the cells were not treated with the sample was used as a control group (CON), and a group in which the cells were treated with 50 ppm of adenosine was used as a positive control group.

Procollagen = experiment: Collagen synthesis ability in human skin fibroblasts (Type I Procollagen C-Peptide EIA kit); type: cell-based
Description: Human skin fibroblasts were cultured at a concentration of 1×10^4/well. The cells were treated with each sample, and the amount of synthesized collagen was measured to evaluate the collagen synthesis ability. The cells were treated with adenosine at a concentration of 50 ppm as a positive control and arginine aspartate at a concentration of 10, 20 and 40 ppm. Collagen quantification was performed using a Type I Procollagen C-Peptide EIA kit (Takara, Japan). A group in which the cells were not treated with sample was used as a control group (CON).

TNF-α = experiment: Anti-inflammatory effect: TNF-α expression in UVB-stimulated HaCaT cells (RT-PCR); type: cell-based; conditions: UVB stimulation
Description: HaCaT cells were seeded in a 12-well plate by 1×10^5 cells/well, and after 24 hours, they were replaced with a basal medium and starvated for 6 hours. After that, the medium was replaced with the basal medium containing the sample and the cells were incubated for 24 hours. After removal of the medium, UVB stimulation was applied, and the basal medium was added and the cells were cultured for 24 hours. The medium was completely removed and the cells were washed twice with PBS. The cells were disrupted using TRIsure to recover RNA, and then RT-PCR was performed to amplify TNF-α. Electrophoresis was performed on an agarose gel and the expression rate was measured using the Gel Documentation system. 200 μM dexamethasone was used as a positive control.

mushroom tyrosinase = experiment: Whitening effect: mushroom tyrosinase activity (absorbance at 490 nm); type: biochemical; conditions: for Tyrosinase activity (% of control): 37° C. for 10 minutes, pH 6.8
Description: After adding 200 μL of 0.1M phosphate buffer (pH 6.8) to the Eppen tube, 20 μL of each sample solution diluted at each concentration was added. Then, 20 μL of mushroom tyrosinase (2,000 units/μL) and 200 μL of 0.3% tyrosine were added in order, and then reacted at 37° C. for 10 minutes. After 200 μL of this solution was transferred to a 96-well plate, absorbance was measured at 490 nm using an ELISA reader. 100 ppm arbutin was used as a positive control.

[1] = Removal of 2-nonenal by arginine aspartate (HPLC over time); conditions: 0.05 wt % 2-nonenal treated with 2.5 wt % arginine aspartate, room temperature, after 20 hours
Description: The ability of the arginine aspartate of Formula (I) according to the present invention to remove 2-nonenal was evaluated.
2-Nonenal was dissolved at a concentration of 0.1 wt % (1000 ppm) in 50 wt % ethanol aqueous solution containing 0.5 wt % Tween 80. Arginine aspartate was dissolved at a concentration of 5 wt % (50000 ppm) in a 50 wt % ethanol aqueous solution containing 0.5 wt % Tween 80.
The two solutions were mixed in a 1:1 ratio by weight to make a mixed solution. The mixed solution was left at room temperature and the change in the amount of 2-nonenal was analyzed by HPLC over time. That is, the change in the amount of 2-nonenal over time was analyzed by treating 0.05 wt % 2-nonenal with arginine aspartate at a concentration of 2.5 wt %.
Further, the 2-nonenal solution prepared above was diluted two-fold with a 50 wt % ethanol aqueous solution containing 0.5 wt % Tween 80 and the diluted solution was left at room temperature to analyze the change in the amount of 2-nonenal over time by HPLC. That is, the change in the amount of 2-nonenal over time was analyzed in a condition of 0.05 wt % of 2-nonenal untreated with arginine aspartate.

For `Nc1ncnc2c1ncn2[C@@H]1O[C@H](CO)[C@@H](O)[C@H]1O` [Adenosine, adenosine, reference compound], the “MMP-1 gene expression level (% of control)” value (MMP-1; 50 ppm) was 73.9 % of control and the “Type I procollagen C-peptide level (% of control)” value (Procollagen; 50 ppm) was 142.2 % of control.

With `C[C@@H]1C[C@H]2[C@@H]3CCC4=CC(=O)C=C[C@]4(C)[C@@]3(F)[C@@H](O)C[C@]2(C)[C@@]1(O)C(=O)CO` [Dexamethasone, dexamethasone, reference compound] the “TNF-α gene expression level (% of control)” value (TNF-α; 50 ppm (table)) was 66.9 % of control.

With `OC[C@H]1O[C@@H](Oc2ccc(O)cc2)[C@H](O)[C@@H](O)[C@@H]1O` [Arbutin, arbutin, reference compound] the “Tyrosinase activity (% of control)” value (mushroom tyrosinase; 10 ppm) was 93.6 % of control and the “Tyrosinase activity (% of control)” value (mushroom tyrosinase; 100 ppm) was 76.7 % of control.

In the case of arginine aspartate, the “amount of 2-nonenal decreased” value [1] is reported as 74%, the “amount of 2-nonenal left compared to the initial 100% by weight” value [1] is reported as 26 % by weight and the “MMP-1 gene expression level (% of control)” value (MMP-1; 10 ppm) is reported as 86.7 % of control. The “MMP-1 gene expression level (% of control)” value (MMP-1; 20 ppm) was 82.2 % of control, the “MMP-1 gene expression level (% of control)” value (MMP-1; 40 ppm) was 76.6 % of control and the “inhibitory effect on MMP-1” value (MMP-1; 40 ppm) was 23.4%. The “collagen synthesis compared to the control group (CON)” value (Procollagen; 10, 20 and 40 ppm) was “increase in collagen synthesis”, the “Type I procollagen C-peptide level (% of control)” value (Procollagen; 10 ppm) was 123.6 % of control and the “Type I procollagen C-peptide level (% of control)” value (Procollagen; 20 ppm) was 133.0 % of control. The “Type I procollagen C-peptide level (% of control)” value (Procollagen; 40 ppm) was 136.8 % of control, the “TNF-α gene expression level (% of control)” value (TNF-α; 10 ppm) was 76.0 % of control and the “TNF-α gene expression level (% of control)” value (TNF-α; 20 ppm) was 72.9 % of control. The “TNF-α gene expression level (% of control)” value (TNF-α; 40 ppm) was 72.6 % of control, the “decrease in TNF-α expression level” value (TNF-α; 40 ppm) was 37.4% and the “Tyrosinase activity (% of control)” value (mushroom tyrosinase; 10 ppm) was 72.5 % of control. For the same compound, the “inhibition in tyrosinase activity” value (mushroom tyrosinase; 100 ppm) was 28.3% and the “Tyrosinase activity (% of control)” value (mushroom tyrosinase; 100 ppm) was 71.7 % of control.
